Reference: US8546392B2, “17Beta-hydroxysteroid dehydrogenase type 1 inhibitors for the treatment of hormone-related diseases” (Universitaet des Saarlandes, priority 2008, dated 2013)
Read-outs that look alike come from different tables or passages of the source.

Columns and labels:
17β-HSD1 = 17β-HSD1 (Homo sapiens (Human), UniProt P14061); test: 17β-HSD1 test assay (recombinant protein from Sf9 insect cells, 3H-estrone/NADPH); format: biochemical; details: for inhibition at 1 µM: read-out: HSD 1 μM (% inhibition of HSD1); for inhibition at 0.1 µM: read-out: HSD1 100 nM (% inhibition)
17β-HSD1, sequence (P14061 whole entry): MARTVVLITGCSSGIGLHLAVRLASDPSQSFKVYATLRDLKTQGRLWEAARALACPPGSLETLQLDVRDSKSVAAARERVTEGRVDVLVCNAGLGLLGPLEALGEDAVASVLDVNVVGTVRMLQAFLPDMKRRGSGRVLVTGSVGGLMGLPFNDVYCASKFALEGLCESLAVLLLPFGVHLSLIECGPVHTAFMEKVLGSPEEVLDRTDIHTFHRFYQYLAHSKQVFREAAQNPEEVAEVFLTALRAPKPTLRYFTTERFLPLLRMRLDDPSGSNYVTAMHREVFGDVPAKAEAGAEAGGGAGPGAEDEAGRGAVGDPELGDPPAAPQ
Procedure: Recombinant protein obtained from Sf9 insect cells (0.1 μg/ml) is incubated with 20 mM KH2PO4, pH 7.4, 30 nM ^3H-estrone and 1 mM NADPH for 30 min at RT in the presence of the potential inhibitor in a concentration of 1 μM or 100 nM. The stock solutions of the compounds are prepared in DMSO (dimethylsulfoxide) so that the final concentration of DMSO in the sample is 1%. After the prescribed incubation time, the reaction is quenched by adding trichloroacetic acid (10% final concentration). The samples are centrifuged in microtitration plates at 400 rpm for 10 min, and the supernatants are charged on a reversed-phase HPLC equipped with a Waters Symmetrie C18 column and Waters Sentry Guard column. The isocratic HPLC run is performed at RT with a flow rate of 1 ml/min and acetonitrile/water 48:52 as the eluent. The radioactivity was measured by means of a Packard Flow Scintillation Analyzer. […]

17β-HSD2 = 17β-HSD2 (Homo sapiens (Human), UniProt P37059); test: 17β-HSD2 test assay (recombinant protein from Sf9 insect cells, 3H-estradiol/NAD+); format: biochemical; details: for inhibition at 0.1 µM: read-out: HSD2 100 nM (% inhibition); for inhibition at 1 µM: read-out: HSD2 1 μM (% inhibition)
17β-HSD2, sequence (P37059 whole entry): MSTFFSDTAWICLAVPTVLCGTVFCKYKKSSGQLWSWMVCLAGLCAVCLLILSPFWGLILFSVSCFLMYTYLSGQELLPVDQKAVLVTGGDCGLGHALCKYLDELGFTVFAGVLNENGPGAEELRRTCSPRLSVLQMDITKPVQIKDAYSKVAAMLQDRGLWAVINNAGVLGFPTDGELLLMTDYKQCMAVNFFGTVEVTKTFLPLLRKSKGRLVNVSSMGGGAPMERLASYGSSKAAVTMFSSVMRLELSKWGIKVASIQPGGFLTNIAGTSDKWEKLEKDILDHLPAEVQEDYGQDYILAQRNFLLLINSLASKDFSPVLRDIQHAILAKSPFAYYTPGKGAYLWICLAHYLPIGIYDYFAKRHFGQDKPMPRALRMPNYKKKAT
Procedure: Recombinant protein obtained from Sf9 insect cells (0.1 μg/ml) is incubated with 20 mM KH2PO4, pH 7.4, 30 nM ^3H-estradiol and 1 mM NAD+ for 30 min at RT in the presence of the potential inhibitor in a concentration of 1 μM or 100 nM. The stock solutions of the compounds are prepared in DMSO so that the final concentration of DMSO in the sample is 1%. After the prescribed incubation time, the reaction is quenched by adding trichloroacetic acid (10% final concentration). The samples are centrifuged in microtitration plates at 400 rpm for 10 min, and the supernatants are charged on a reversed-phase HPLC equipped with a Waters Symmetrie C18 column and
Waters Sentry Guard column. The isocratic HPLC run is performed at RT with a flow rate of 1 ml/min and acetonitrile/water 48:52 as the eluent. The radioactivity was measured by means of a Packard Flow Scintillation Analyzer. The percent inhibition was calculated by means of the formulas stated above.

[1] = CaCo-2 assay (transport experiments); format: in vitro ADME; details: human, Caco-2; initial donor concentration 50 μM
Procedure: (§1) Four reference compounds (atenolol, testosterone, ketoprofene and erythromycin) were employed in each assay for evaluating the transport properties of the CaCo-2 cells. The initial concentration of the compounds in the donor compartment was 50 μM (in buffer with 1% ethanol or DMSO). […] For glycoprotein P (P-gp) studies, bidirectional experiments were performed. The absorptive and secretory permeabilities (Papp(a-b) and Papp(b-a)) were determined. Thus, erythromycin was used as a substrate, and verapamil was used as an inhibitor of P-gp. Each experiment was performed in triplicate. The integrity of the monolayer was determined by means of TEER (transepithelial electric resistance) and the permeability for each assay was determined using Lucifer Yellow. All samples of the CaCo-2 transport experiments were analyzed by means of LC/MS/MS after dilution with buffer (1:1 with 2% acetic acid).

CaCo-2 cells = test: CaCo-2 assay (transport experiments); format: in vitro ADME; details: for Permeability: class in words; for final basolateral concentration [μM ± SD]: initial donor concentration 50 μM
Procedure: as §1

estrogen receptor α = estrogen receptor α (Homo sapiens (Human), UniProt P03372); test: Estrogen receptor binding assay, ERα
estrogen receptor α, sequence (P03372 whole entry): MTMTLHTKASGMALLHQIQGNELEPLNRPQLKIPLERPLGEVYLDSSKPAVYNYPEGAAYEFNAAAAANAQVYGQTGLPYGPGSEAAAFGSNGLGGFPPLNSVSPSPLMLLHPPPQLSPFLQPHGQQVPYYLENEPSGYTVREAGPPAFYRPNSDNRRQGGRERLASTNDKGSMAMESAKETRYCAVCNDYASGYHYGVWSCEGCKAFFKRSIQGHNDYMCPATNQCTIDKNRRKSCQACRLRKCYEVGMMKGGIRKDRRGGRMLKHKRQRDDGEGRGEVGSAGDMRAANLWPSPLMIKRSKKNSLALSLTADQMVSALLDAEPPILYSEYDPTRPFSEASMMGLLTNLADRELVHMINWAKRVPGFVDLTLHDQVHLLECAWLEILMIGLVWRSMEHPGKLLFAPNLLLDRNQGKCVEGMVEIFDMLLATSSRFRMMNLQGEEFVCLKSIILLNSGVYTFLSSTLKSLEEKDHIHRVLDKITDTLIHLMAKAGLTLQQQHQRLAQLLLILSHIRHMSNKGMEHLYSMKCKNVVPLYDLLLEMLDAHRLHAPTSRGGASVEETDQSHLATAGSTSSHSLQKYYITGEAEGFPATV

estrogen receptor β = estrogen receptor β (Homo sapiens (Human), UniProt Q92731); test: Estrogen receptor binding assay, ERβ
estrogen receptor β, sequence (Q92731 whole entry): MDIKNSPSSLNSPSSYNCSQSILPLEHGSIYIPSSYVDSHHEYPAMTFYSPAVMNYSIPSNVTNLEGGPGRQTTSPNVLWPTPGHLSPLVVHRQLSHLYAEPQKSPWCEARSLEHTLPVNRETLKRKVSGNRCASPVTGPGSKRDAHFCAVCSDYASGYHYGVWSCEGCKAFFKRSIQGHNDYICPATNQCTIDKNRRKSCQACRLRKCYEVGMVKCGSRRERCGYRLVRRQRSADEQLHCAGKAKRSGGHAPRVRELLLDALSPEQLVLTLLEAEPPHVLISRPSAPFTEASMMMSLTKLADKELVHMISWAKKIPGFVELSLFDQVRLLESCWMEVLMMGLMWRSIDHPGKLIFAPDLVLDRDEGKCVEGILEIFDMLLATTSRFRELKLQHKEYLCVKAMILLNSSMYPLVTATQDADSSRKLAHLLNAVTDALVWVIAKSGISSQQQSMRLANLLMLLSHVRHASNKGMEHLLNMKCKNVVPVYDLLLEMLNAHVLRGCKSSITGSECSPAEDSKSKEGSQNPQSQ

[2] = In vivo pharmacokinetics (rat), cassette dosing method; details: cassette dosing perorally 10 mg/kg, male Wistar rats; for AUC(0-t) / Tmax / AUC(0-inf): rat, plasma, po; for AUC(0-inf): extrapolated to ∞
From the text: Labrasol/water 1/1). The plasma profiles were established by means of LC-MS/MS.

[3] = In vivo pharmacokinetics (rat), single oral administration; details: single oral administration 50 mg/kg, male Wistar rats
CYP2D6 = CYP2D6 (Homo sapiens (Human), UniProt P10635); test: P450 inhibition assay CYP2D6; format: biochemical; details: read-out: IC50 (mean ± SD) [μM] CYP2D6
CYP2D6, sequence (P10635 whole entry): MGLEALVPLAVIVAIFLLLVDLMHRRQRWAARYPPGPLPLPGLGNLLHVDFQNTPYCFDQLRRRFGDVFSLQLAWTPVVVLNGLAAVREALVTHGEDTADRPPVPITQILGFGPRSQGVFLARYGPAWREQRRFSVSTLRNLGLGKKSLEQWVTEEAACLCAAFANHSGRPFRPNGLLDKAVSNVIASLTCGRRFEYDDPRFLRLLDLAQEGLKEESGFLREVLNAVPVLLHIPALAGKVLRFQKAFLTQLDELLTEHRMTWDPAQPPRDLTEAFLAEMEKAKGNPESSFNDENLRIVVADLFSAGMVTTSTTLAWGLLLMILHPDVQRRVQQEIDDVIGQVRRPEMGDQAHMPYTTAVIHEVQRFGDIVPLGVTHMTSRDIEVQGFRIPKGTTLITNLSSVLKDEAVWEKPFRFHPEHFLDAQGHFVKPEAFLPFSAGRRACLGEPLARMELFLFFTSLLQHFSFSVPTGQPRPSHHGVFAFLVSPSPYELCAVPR

[4] = Test for metabolic stability, liver microsomes; details: for Slope (−k): rat liver microsomes
Procedure: The assay was performed with liver microsomes of rats.
The incubation solution (180 μl) consists of 90 μl of a microsomal suspension of 0.33 mg/ml protein in 100 mM phosphate buffer, pH 7.4, with 90 μl NADP-regenerating system (NADP: 1 mM, glucose-6-phosphate 5 mM, glucose-6-phosphate dehydrogenase: 5 U/ml, MgCl2 5 mM).
The reaction is started by adding 20 μl of the compound to be tested in 20% ACN to the microsome/buffer mixture preincubated at 37° C. After 0, 15, 30 and 60 minutes, 200 μl of sample solution is withdrawn and subjected to ACN precipitation. The isolation of the compounds is effected by adding 200 μl ACN that contains the internal standard (1 μM) to 200 μl of sample solution and calibration standard. After shaking for 10 s and centrifugation at 4000 g, an aliquot of the supernatant is subjected to LC-MS/MS. Two controls are included, namely a positive control with 7-ethoxycoumarin as a reference to verify the microsomal enzyme activity, and a negative control in which microsomes are used that were heated for 25 minutes without a regenerating system, in order to ensure that the loss of substance is actually due to metabolization.
The amount of compound in a sample is expressed as the percent fraction of the compound remaining as compared to time t=0 (100%). The percent fraction is plotted versus time.

CYP3A4 = CYP3A4 (Homo sapiens (Human), UniProt P08684); test: P450 inhibition assay CYP3A4; format: biochemical; details: read-out: IC50 (mean ± SD) [μM] CYP3A4
CYP3A4, sequence (P08684 whole entry): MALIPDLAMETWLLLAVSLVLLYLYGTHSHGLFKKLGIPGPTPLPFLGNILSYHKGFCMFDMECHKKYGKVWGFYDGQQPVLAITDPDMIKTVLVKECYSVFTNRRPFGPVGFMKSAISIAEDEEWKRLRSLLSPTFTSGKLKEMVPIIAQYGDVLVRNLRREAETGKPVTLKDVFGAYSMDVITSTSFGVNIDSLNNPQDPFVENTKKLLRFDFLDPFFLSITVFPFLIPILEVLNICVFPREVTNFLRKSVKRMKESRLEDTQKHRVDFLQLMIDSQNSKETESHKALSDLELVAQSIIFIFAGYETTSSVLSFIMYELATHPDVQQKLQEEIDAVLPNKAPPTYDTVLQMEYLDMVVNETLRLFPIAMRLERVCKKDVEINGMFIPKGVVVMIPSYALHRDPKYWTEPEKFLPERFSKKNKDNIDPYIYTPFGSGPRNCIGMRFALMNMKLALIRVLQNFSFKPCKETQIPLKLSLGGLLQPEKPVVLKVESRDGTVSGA

CYP1A2 = CYP1A2 (Homo sapiens (Human), UniProt P05177); test: P450 inhibition assay CYP1A2
CYP1A2, sequence (P05177 whole entry): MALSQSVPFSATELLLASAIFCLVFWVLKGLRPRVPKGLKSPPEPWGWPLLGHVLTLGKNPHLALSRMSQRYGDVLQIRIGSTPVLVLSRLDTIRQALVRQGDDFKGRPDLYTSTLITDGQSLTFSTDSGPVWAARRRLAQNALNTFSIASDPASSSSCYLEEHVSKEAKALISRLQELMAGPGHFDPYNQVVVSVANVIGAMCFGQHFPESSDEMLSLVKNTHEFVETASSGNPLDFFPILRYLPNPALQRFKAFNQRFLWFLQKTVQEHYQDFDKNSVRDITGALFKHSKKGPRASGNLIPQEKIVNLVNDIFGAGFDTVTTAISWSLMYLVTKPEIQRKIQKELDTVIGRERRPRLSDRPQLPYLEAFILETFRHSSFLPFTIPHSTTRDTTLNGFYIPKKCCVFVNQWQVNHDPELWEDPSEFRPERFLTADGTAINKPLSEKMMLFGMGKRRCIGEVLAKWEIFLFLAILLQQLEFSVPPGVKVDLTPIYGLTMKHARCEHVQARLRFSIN

CYP2C9 = CYP2C9 (Homo sapiens (Human), UniProt P11712); test: P450 inhibition assay CYP2C9
CYP2C9, sequence (P11712 whole entry): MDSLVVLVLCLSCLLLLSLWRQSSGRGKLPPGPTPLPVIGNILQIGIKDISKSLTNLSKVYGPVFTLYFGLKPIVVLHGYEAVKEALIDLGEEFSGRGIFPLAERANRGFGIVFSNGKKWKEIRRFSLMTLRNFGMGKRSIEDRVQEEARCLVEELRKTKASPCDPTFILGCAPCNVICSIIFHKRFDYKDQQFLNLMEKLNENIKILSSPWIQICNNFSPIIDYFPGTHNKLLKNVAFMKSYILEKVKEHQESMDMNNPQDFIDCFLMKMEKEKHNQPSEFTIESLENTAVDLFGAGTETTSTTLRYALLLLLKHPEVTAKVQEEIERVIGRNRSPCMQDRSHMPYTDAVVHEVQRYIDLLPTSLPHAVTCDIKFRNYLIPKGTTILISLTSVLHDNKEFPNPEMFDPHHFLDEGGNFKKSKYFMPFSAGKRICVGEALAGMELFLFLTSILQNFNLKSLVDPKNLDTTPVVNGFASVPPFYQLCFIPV

CYP2C19 = CYP2C19 (Homo sapiens (Human), UniProt P33261); test: P450 inhibition assay CYP2C19
CYP2C19, sequence (P33261 whole entry): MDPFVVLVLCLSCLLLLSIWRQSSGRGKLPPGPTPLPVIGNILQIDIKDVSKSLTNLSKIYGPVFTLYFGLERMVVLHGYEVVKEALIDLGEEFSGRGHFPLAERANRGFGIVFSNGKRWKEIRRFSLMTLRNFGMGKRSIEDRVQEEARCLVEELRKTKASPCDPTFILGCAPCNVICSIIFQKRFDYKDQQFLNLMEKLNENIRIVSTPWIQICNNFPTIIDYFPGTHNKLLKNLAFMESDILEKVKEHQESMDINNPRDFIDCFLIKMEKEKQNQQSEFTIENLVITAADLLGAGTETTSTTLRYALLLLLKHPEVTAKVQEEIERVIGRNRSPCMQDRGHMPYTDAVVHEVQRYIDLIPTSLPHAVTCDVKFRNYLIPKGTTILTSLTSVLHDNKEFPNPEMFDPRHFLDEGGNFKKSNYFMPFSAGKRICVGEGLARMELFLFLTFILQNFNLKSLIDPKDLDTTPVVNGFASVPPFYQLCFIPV

CYP2B6 = CYP2B6 (Homo sapiens (Human), UniProt P20813); test: P450 inhibition assay CYP2B6
CYP2B6, sequence (P20813 whole entry): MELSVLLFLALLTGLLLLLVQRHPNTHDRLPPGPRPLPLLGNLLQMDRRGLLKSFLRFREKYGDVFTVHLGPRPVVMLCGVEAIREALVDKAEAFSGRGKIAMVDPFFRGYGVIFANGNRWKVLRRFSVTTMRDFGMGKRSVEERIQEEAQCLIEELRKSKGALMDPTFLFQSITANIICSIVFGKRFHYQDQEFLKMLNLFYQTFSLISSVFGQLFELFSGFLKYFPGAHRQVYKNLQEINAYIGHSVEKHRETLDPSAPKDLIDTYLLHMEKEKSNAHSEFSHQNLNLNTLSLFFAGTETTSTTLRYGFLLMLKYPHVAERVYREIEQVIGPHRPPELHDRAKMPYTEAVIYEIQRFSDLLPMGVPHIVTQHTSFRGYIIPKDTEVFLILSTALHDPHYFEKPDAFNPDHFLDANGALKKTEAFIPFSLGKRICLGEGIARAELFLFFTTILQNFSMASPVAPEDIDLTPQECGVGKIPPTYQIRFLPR

[5] = relative binding affinity (estradiol: 100%)

| inhibition at 1 µM (17β-HSD1; inhibitor 1 μM) | inhibition at 0.1 µM (17β-HSD1; inhibitor 100 nM) | inhibition at 0.1 µM (17β-HSD2; inhibitor 100 nM) | inhibition at 1 µM (17β-HSD2; inhibitor 1 μM) | Compound | RBA ERα [%] (estrogen receptor α; [5]) | RBA ERβ [%] (estrogen receptor β; [5]) | T1/2z [2] | tz [2] | AUC(0-t) [2] | Tmax [2] | AUC(0-inf) [2] | other results |
| --- | --- | --- | --- | --- | --- | --- | --- | --- | --- | --- | --- | --- |
| 80.2% | 40% | < 10% | 16.3% | O=C(Nc1ccccc1)c1c(O)ccc2cc(-c3cccc(O)c3)ccc12 [Compound 42, 2-Hydroxy-6-(3-hydroxyphenyl)-N-phenyl-1-naphthamide] | – | – | – | – | – | – | – | Papp at 180 min, 50 μM [1]: 1.5 ×10⁻⁶ cm/s; mass balance [% ± SD] (CaCo-2 cells): 7.6 ± 0.5%; Permeability (CaCo-2 cells): moderate; final basolateral concentration [μM ± SD] (CaCo-2 cells): 1.1 ± 0.1 µM |
| 96.3% | 87% | 24% | 71% | O=S(=O)(Nc1nccs1)c1cccc(-c2c(O)ccc3cc(-c4cccc(O)c4)ccc23)c1 [Compound 69, 3-(2-Hydroxy-6-(3-hydroxyphenyl)naphthalene-1-yl)-N-(thiazol-2-yl)-benzenesulfonamide] | 0.015% | 0.010% | – | – | – | – | – | – |
| 88.4% | 82.9% | 19% | 69% | Oc1cccc(-c2ccc3c(Br)c(O)ccc3c2)c1 [Compound 52, 1-Bromo-6-(3-hydroxyphenyl)naphthalene-2-ol] | 0.081% | 0.10% | – | – | – | – | – | – |
| 87.3% | 74.1% | < 10% | 39.1% | Nc1cccc(-c2c(O)ccc3cc(-c4cccc(O)c4)ccc23)c1 [Compound 68, 1-(3-Aminophenyl)-6-(3-hydroxyphenyl)naphthalene-2-ol] | – | – | 2.4 h | 24.0 h | 539 ng·h/mL | 2 h | 540 ng·h/mL | Papp at 180 min, 50 μM [1]: 16.4 ×10⁻⁶ cm/s; mass balance [% ± SD] (CaCo-2 cells): 52.7 ± 3.6%; Permeability (CaCo-2 cells): high; final basolateral concentration [μM ± SD] (CaCo-2 cells): 13.9 ± 0.8 µM; AUC(0-t) ([3]; rat, plasma): 337 ng·h/mL; Tmax ([3]; rat, plasma): 2 h; AUC(0-inf) ([3]; rat, plasma, extrapolated to ∞): 337 ng·h/mL; t1/2z [3]: 1.59 h; tz [3]: 8.0 h |
| 94% | 83% | – | – | N#Cc1cc(O)cc2ccc(-c3cccc(O)c3)cc12 [Compound 54, 3-Hydroxy-7-(3-hydroxyphenyl)-1-naphthonitrile] | – | – | – | – | – | – | – | Papp at 180 min, 50 μM [1]: 4.4 ×10⁻⁶ cm/s; mass balance [% ± SD] (CaCo-2 cells): 30.5 ± 3.1%; Permeability (CaCo-2 cells): moderate; final basolateral concentration [μM ± SD] (CaCo-2 cells): 3.7 ± 0.3 µM; IC50 (CYP3A4): 2.05 ± 0.18 µM; IC50 (CYP1A2): 259 ± 10 nM; IC50 (CYP2C9): 224 ± 2 nM; IC50 (CYP2C19): 1210 ± 190 nM |
| 89.4% | 76.2% | 22.1% | 77.2% | Oc1cccc(-c2ccc3c(-c4ccccc4)c(O)ccc3c2)c1 [Compound 56, 6-(3-Hydroxyphenyl)-1-phenyl-2-naphthol] | 0.055% | 0.044% | 5.9 h | 24.0 h | 11700 ng·h/mL | 4 h | 12700 ng·h/mL | – |
| 81.5% | 35.1% | 24.1% | 63.6% | CC(=O)Nc1cccc(-c2c(O)ccc3cc(-c4cccc(O)c4)ccc23)c1 [Compound 66, N-(3-(2-Hydroxy-6-(3-hydroxyphenyl)naphthalene-1-yl)phenyl)acetamide] | – | – | – | – | – | – | – | – |
| 22.1% | < 10% | 15.5% | 51.7% | Oc1cccc(-c2ccc3c(-c4cncnc4)c(O)ccc3c2)c1 [Compound 61, 6-(3-Hydroxyphenyl)-1-(pyrimidin-5-yl)naphthalene-2-ol] | – | – | – | – | – | – | – | – |

| Compound | inhibition at 1 µM (17β-HSD1; inhibitor 1 μM) | inhibition at 0.1 µM (17β-HSD1; inhibitor 100 nM) | inhibition at 0.1 µM (17β-HSD2; inhibitor 100 nM) | inhibition at 1 µM (17β-HSD2; inhibitor 1 μM) | RBA ERα [%] (estrogen receptor α; [5]) | RBA ERβ [%] (estrogen receptor β; [5]) | T1/2z [2] | tz [2] | AUC(0-t) [2] | Tmax [2] | AUC(0-inf) [2] | other results |
| --- | --- | --- | --- | --- | --- | --- | --- | --- | --- | --- | --- | --- |
| Oc1cccc(-c2ccc3c(-c4ccncc4)c(O)ccc3c2)c1 [Compound 60, 6-(3-Hydroxyphenyl)-1-(pyridin-4-yl)naphthalene-2-ol] | – | – | 12.2% | 48.5% | 0.0068% | 0.003% | – | – | – | – | – | inhibition at 1 µM (17β-HSD1): 85.9%; inhibition at 0.1 µM (17β-HSD1): 74.4% |
| Oc1cccc(-c2ccc3c(-c4ccoc4)c(O)ccc3c2)c1 [Compound 58, 1-(Furan-3-yl)-6-(3-hydroxyphenyl)naphthalene-2-ol] | – | – | 60.6% | 92.3% | – | – | – | – | – | – | – | inhibition at 1 µM (17β-HSD1): 89.1%; inhibition at 0.1 µM (17β-HSD1): 83%; RBA ERα [%] (estrogen receptor α): 0.022%; RBA ERβ [%] (estrogen receptor β): 0.024% |
| Oc1cccc(-c2ccc3c(-c4cccc(O)c4)c(O)ccc3c2)c1 [Compound 57, 1,6-Bis(3-hydroxyphenyl)naphthalene-2-ol] | 92.6% | 82.9% | – | – | 0.0013% | 0.020% | 0.9 h | 10.0 h | 10700 ng·h/mL | 6 h | 10700 ng·h/mL | inhibition at 0.1 µM (17β-HSD2): < 10%; inhibition at 1 µM (17β-HSD2): 40.1% |
| Oc1cccc(-c2ccc3cc(O)ccc3c2)c1 [Compound 19, 6-(3-Hydroxyphenyl)-2-naphthol] | 94% | 91.4% | 12.4% | 16.6% | 0.23% | 0.80% | 4.4 h | 24.0 h | 29700 ng·h/mL | 6 h | 30700 ng·h/mL | Papp at 180 min, 50 μM [1]: 8.9 ×10⁻⁶ cm/s; mass balance [% ± SD] (CaCo-2 cells): 37.5 ± 3.0%; Permeability (CaCo-2 cells): moderate; final basolateral concentration [μM ± SD] (CaCo-2 cells): 6.5 ± 0.2 µM; IC50 (CYP2D6): 32.6 ± 0.72 µM; Slope (−k) [4]: −0.055; half-life ([4]; rat, microsomes, pH 7.4): 0.21 h; microsomal CLint ([4]; rat, microsomes, pH 7.4): 367 µL/min/mg |
| COc1ccc(-c2c(O)ccc3cc(-c4cccc(O)c4)ccc23)cn1 [Compound 62, 6-(3-Hydroxyphenyl)-1-(6-methoxypyridin-3-yl)naphthalene-2-ol] | 89.2% | 85.9% | – | – | – | – | – | – | – | – | – | inhibition at 0.1 µM (17β-HSD2): 24.3%; inhibition at 1 µM (17β-HSD2): 67.2%; IC50 (CYP2D6): 40 ± 0.08 µM; IC50 (CYP3A4): 1.07 ± 0.05 µM; IC50 (CYP2B6): 10400 ± 140 nM; Slope (−k) [4]: −0.014; microsomal CLint ([4]; rat, liver microsomes, pH 7.4): 92.8 µL/min/mg |
| CS(=O)(=O)Nc1cccc(-c2c(O)ccc3cc(-c4cccc(O)c4)ccc23)c1 [Compound 64, N-(3-(2-Hydroxy-6-(3-hydroxyphenyl)naphthalene-1-yl)phenyl)methanesulfonamide] | – | – | 31.1% | 71.3% | – | – | 1.1 h | 10.0 h | 1330 ng·h/mL | 2 h | 1330 ng·h/mL | inhibition at 1 µM (17β-HSD1): 90.8%; inhibition at 0.1 µM (17β-HSD1): 88.1%; RBA ERα [%] (estrogen receptor α): 0.012%; RBA ERβ [%] (estrogen receptor β): 0.007% |
